Laboratory results reported in publication PMC4965013, “Open Source Drug Discovery with the Malaria Box Compound Collection for Neglected Diseases and Beyond” (PLoS Pathogens, 2016).
Like-named read-outs stand apart in the source and are kept apart here.

Tests used:
P. falciparum 3D7 = experiment: [3H]-hypoxanthine growth inhibition, modified HCO3- or O2; format: cell-based; conditions: for IC50: Plasmodium falciparum
[1] = tested on: P. falciparum 3D7 trophozoites; experiment: Metabolomic fingerprint profiling LC-MS; format: cell-based, Plasmodium falciparum; set-up: UDP-D-glucose / ADP-D-glucose: unit not given here
[2] = tested on: P. falciparum NF54 late-stage gametocytes; conditions: ref [61]; cited from earlier work
P. falciparum = experiment: EC50 listed in S2 Table Metabolomics (used to set the concentration tested); format: cell-based; conditions: Plasmodium falciparum; EC50 used for Factor_XEC50 in metabolomics; read-out: EC50_nM
PfPMT = PfPMT (Plasmodium falciparum, UniProt Q8IDQ9); experiment: PfPMT gene replacement yeast growth; conditions: 100µM
Chain of PfPMT (Q8IDQ9 whole entry): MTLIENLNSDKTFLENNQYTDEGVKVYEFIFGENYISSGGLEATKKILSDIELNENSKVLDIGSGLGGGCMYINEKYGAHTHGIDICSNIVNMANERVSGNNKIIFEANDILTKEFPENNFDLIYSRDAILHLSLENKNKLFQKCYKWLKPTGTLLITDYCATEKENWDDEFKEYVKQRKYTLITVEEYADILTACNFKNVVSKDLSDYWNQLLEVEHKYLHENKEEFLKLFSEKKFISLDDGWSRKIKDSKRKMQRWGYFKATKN

[3] = tested on: Naegleria fowleri trophozoites; experiment: Naegleria fowleri CellTiter-Glo; format: cell-based; conditions: Naegleria fowleri
Excerpt: Columns CY-CZ: Kyle group (data presented first in this paper). Naegleria fowleri trophozoite growth inhibition. Methods: The CellTiter-Glo (CTG) 2.0 luminescent assay is a quantitative assay that assesses the presence of cellular ATP in lysed cells, displaying an output in Relative Light Units (RLU’s). This was previously standardised, for the growth and development of Naegleria fowleri trophozoites in-vitro to assess drug susceptibility on this parasite. […] These included two drug-like molecules MMV665807 (St. Jude’s Children’s Hospital) and MMV665979 (The Genomics Institute of the Novartis Research Foundation - GNF) and two Probe-like molecules, MMV006203 (GNF) & MMV006172 (GNF; GlaxoSmithKline - GSK). […] However, these Malaria Box compounds were all toxic to zebrafish and mammalian cells.

[4] = metabolite level change after treatment

CN1CCN(c2ccc(Nc3c4ccccc4nc4ccccc34)cc2)CC1 [MMV006172]
fold change (IC50reduced/IC50normal) (P. falciparum 3D7): 2.7
IC50 (P. falciparum 3D7; 3D7, read-out: P. falciparum 3D7 IC50 HCO3- (2g/L), standard media): 98 nM
IC50 (P. falciparum 3D7; 3D7, HCO3- reduced media, read-out: P. falciparum 3D7 IC50 HCO3- reduced): 269 nM
Acetyllysine ([1]; S2 Table Metabolomics, metabolite Acetyllysine): 0.6429
N-acetyl-L-ornithine ([1]; S2 Table Metabolomics, metabolite N-acetyl-L-ornithine): -0.2511
N-carbamoyl-L-aspartate ([1]; S2 Table Metabolomics, metabolite N-carbamoyl-L-aspartate): 0.8815
NADPH ([1]; S2 Table Metabolomics, metabolite NADPH): 2.534
dAMP ([1]; S2 Table Metabolomics, metabolite dAMP): 1.267
dCMP ([1]; S2 Table Metabolomics, metabolite dCMP): -0.3053
dTDP ([1]; S2 Table Metabolomics, metabolite dTDP): 0.7092
dTMP ([1]; S2 Table Metabolomics, metabolite dTMP): 0.8691
dTTP ([1]; S2 Table Metabolomics, metabolite dTTP): -0.715
dihydroorotate ([1]; S2 Table Metabolomics, metabolite dihydroorotate): 1.4632
orotate ([1]; S2 Table Metabolomics, metabolite orotate): 0.5213
DLH ([1]; S2 Table Metabolomics, peptide DLH): -4.586
DLS/SDL/SID ([1]; S2 Table Metabolomics, peptide DLS/SDL/SID): -3.823
PD ([1]; S2 Table Metabolomics, peptide PD): -0.4464
PEE ([1]; S2 Table Metabolomics, peptide PEE): -0.6694
PVNF ([1]; S2 Table Metabolomics, peptide PVNF): -3.7
3-phosphoglycerate ([1]; metabolite 3-phosphoglycerate, S2 Table Metabolomics): -0.655
ADP-D-glucose ([1]; metabolite ADP-D-glucose, S2 Table Metabolomics): -0.09693
ATP ([1]; metabolite ATP, S2 Table Metabolomics): -0.7842
CDP ([1]; metabolite CDP, S2 Table Metabolomics, change in metabolite level after compound treatment): 1.006
D-sedoheptulose-1/7-phosphate ([1]; metabolite D-sedoheptulose-1/7-phosphate, S2 Table Metabolomics, change in metabolite level after compound treatment): 0.2573
FAD ([1]; metabolite FAD, S2 Table Metabolomics): 0.1782
GMP ([1]; metabolite GMP, S2 Table Metabolomics, change in metabolite level after compound treatment): -0.3671
NAD+ ([1]; metabolite NAD+, S2 Table Metabolomics): 0.5266
NADP+ ([1]; metabolite NADP+, S2 Table Metabolomics): -0.7002
Octoluse Bisphosphate ([1]; metabolite Octoluse Bisphosphate, S2 Table Metabolomics, change in metabolite level after compound treatment): -0.1204
Pyroglutamic acid ([1]; metabolite Pyroglutamic acid, S2 Table Metabolomics): -0.2696
UDP-D-glucose ([1]; metabolite UDP-D-glucose, S2 Table Metabolomics): 0.05631
UDP-D-glucuronate ([1]; metabolite UDP-D-glucuronate, S2 Table Metabolomics): -0.2935
UDP-N-acetyl-glucosamine ([1]; metabolite UDP-N-acetyl-glucosamine, S2 Table Metabolomics): 0.1613
UDP ([1]; metabolite UDP, S2 Table Metabolomics, change in metabolite level after compound treatment): 0.649
UMP ([1]; metabolite UMP, S2 Table Metabolomics, change in metabolite level after compound treatment): 0.2218
UTP ([1]; metabolite UTP, S2 Table Metabolomics, change in metabolite level after compound treatment): -0.6427
a-ketoglutarate ([1]; metabolite a-ketoglutarate, S2 Table Metabolomics): -0.4073
citrate/isocitrate ([1]; metabolite citrate/isocitrate, S2 Table Metabolomics, change in metabolite level after compound treatment): -0.6633
cytidine ([1]; metabolite cytidine, S2 Table Metabolomics): 0.3233
dATP ([1]; metabolite dATP, S2 Table Metabolomics): -0.3558
dGMP/AMP ([1]; metabolite dGMP/AMP, S2 Table Metabolomics, change in metabolite level after compound treatment): 1.003
fumarate ([1]; metabolite fumarate, S2 Table Metabolomics, change in metabolite level after compound treatment): 0.7684
glucose-1/6-phosphate ([1]; metabolite glucose-1/6-phosphate, S2 Table Metabolomics, change in metabolite level after compound treatment): 0.09231
glycerate ([1]; metabolite glycerate, S2 Table Metabolomics, change in metabolite level after compound treatment): 0.7592
guanine ([1]; metabolite guanine, S2 Table Metabolomics, change in metabolite level after compound treatment): 0.5811
guanosine ([1]; metabolite guanosine, S2 Table Metabolomics, change in metabolite level after compound treatment): 0.453
hypoxanthine ([1]; metabolite hypoxanthine, S2 Table Metabolomics): -0.3137
indole ([1]; metabolite indole, S2 Table Metabolomics): -0.03187
inosine ([1]; metabolite inosine, S2 Table Metabolomics, change in metabolite level after compound treatment): -0.01435
2_3-Diphosphoglyceric acid [1, 4]: -0.3266
4-phosphopantothenate [1, 4]: 0.2237
6-phospho-D-gluconate [1, 4]: -0.02611
FMN [1, 4]: -0.396
IMP [1, 4]: 0.3236
Pyrophosphate [1, 4]: -0.313
Sedoheptoluse bisphosphate [1, 4]: 0.4531
cyclic-AMP [1, 4]: -0.3476
glutathione disulfide [1, 4]: -0.09654
lactate [1, 4]: -0.002939
myo-inositol [1, 4]: 0.6827
nicotinate ([1]; metabolite nicotinate, S2 Table Metabolomics): -0.01109
ornithine ([1]; metabolite ornithine, S2 Table Metabolomics): 0.1416
phosphoenolpyruvate ([1]; metabolite phosphoenolpyruvate, S2 Table Metabolomics): -0.5207
pyruvate ([1]; metabolite pyruvate, S2 Table Metabolomics, change in metabolite level after compound treatment): -0.2034
ribose-phosphate ([1]; metabolite ribose-phosphate, S2 Table Metabolomics): -0.6476
sarcosine/alanine ([1]; metabolite sarcosine/alanine, S2 Table Metabolomics, change in metabolite level after compound treatment): -0.2856
sn-glycerol-3-phosphate ([1]; metabolite sn-glycerol-3-phosphate, S2 Table Metabolomics): -0.6027
succinate/methylmalonic acid ([1]; metabolite succinate/methylmalonic acid, S2 Table Metabolomics, change in metabolite level after compound treatment): -0.3004
uridine ([1]; metabolite uridine, S2 Table Metabolomics, change in metabolite level after compound treatment): -0.07558
xanthosine ([1]; metabolite xanthosine, S2 Table Metabolomics, change in metabolite level after compound treatment): -1.8392
IC50 [2]: < 350 nM
EC50 (P. falciparum): 142 nM
candidate inhibitors of PfPMT activity (yeast functional assay) (PfPMT): candidate inhibitors of PfPMT activity
EC50 [3]: 450 nM
